In the supplement of paper PMC10307832:

What was measured:
Test in all cases: relative viability (nuclei count vs DMSO), 5 days (fraction); higher = more cells survive
[1] = system: NCI-H522
Method in brief: (§1)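 For relative viability, nuclei counts in treated wells were divided by those in vehicle wells. Lung cancer cell lines had been pin-tool dosed in 1536-well plates the day after seeding and cultured for 5 days, then fixed and stained in one step (final 0.05% Triton X-100, 1% formaldehyde, 1 ug/ml Hoechst) and imaged at 4×. Doses were one drug alone or a fixed anchor-drug dose plus five library-drug doses (not always all listed) in √10 steps, and values are duplicate-plate medians.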

[2] = system: EKVX
Method in brief: as §1

[3] = system: 201T
Method in brief: as §1

[4] = system: SK-MES-1
Method in brief: as §1

[5] = system: NCI-H1915
Method in brief: as §1

[6] = system: LK-2
Method in brief: as §1

[7] = system: BEN
Method in brief: as §1

[8] = system: NCI-H1993
Method in brief: as §1

[9] = system: HCC-366
Method in brief: as §1

[10] = system: COR-L 105
Method in brief: as §1

[11] = system: NCI-H1734
Method in brief: as §1

Cc1cn(-c2cc(NC(=O)c3ccc(C)c(Nc4nccc(-c5cccnc5)n4)c3)cc(C(F)(F)F)c2)cn1 [Nilotinib] + Nc1ncn([C@H]2C[C@H](O)[C@@H](CO)O2)c(=O)n1 [Decitabine] (partner 2 µM)
relative viability ([1]; first compound 0.01 µM): 0.667 | relative viability ([1]; first compound 0.03162 µM): 0.699 | relative viability ([1]; first compound 0.1 µM): 0.539 | relative viability ([2]; first compound 0.001 µM): 0.307 | relative viability ([2]; first compound 0.003162 µM): 0.413 | relative viability ([2]; first compound 0.01 µM): 0.394 | relative viability ([2]; first compound 0.03162 µM): 0.305 | relative viability ([2]; first compound 0.1 µM): 0.648 | relative viability ([3]; first compound 0.001 µM): 0.851 | relative viability ([3]; first compound 0.003162 µM): 0.973 | relative viability ([3]; first compound 0.01 µM): 0.944 | relative viability ([3]; first compound 0.03162 µM): 1.01 | relative viability ([3]; first compound 0.1 µM): 0.814 | relative viability ([4]; first compound 0.001 µM): 0.409 | relative viability ([4]; first compound 0.003162 µM): 0.487 | relative viability ([4]; first compound 0.01 µM): 0.575 | relative viability ([4]; first compound 0.03162 µM): 0.617 | relative viability ([4]; first compound 0.1 µM): 0.46 | relative viability ([5]; first compound 0.001 µM): 0.28 | relative viability ([5]; first compound 0.003162 µM): 0.271 | relative viability ([5]; first compound 0.01 µM): 0.255 | relative viability ([5]; first compound 0.03162 µM): 0.318 | relative viability ([5]; first compound 0.1 µM): 0.325 | relative viability ([6]; first compound 0.001 µM): 0.327 | relative viability ([6]; first compound 0.003162 µM): 0.338 | relative viability ([6]; first compound 0.01 µM): 0.252 | relative viability ([6]; first compound 0.03162 µM): 0.236 | relative viability ([6]; first compound 0.1 µM): 0.26 | relative viability ([7]; first compound 0.001 µM): 0.787 | relative viability ([7]; first compound 0.003162 µM): 0.727 | relative viability ([7]; first compound 0.01 µM): 0.622 | relative viability ([7]; first compound 0.03162 µM): 0.801 | relative viability ([7]; first compound 0.1 µM): 0.516 | relative viability ([8]; first compound 0.001 µM): 0.496 | relative viability ([8]; first compound 0.003162 µM): 0.694 | relative viability ([8]; first compound 0.01 µM): 0.658 | relative viability ([8]; first compound 0.03162 µM): 0.517 | relative viability ([8]; first compound 0.1 µM): 0.62 | relative viability ([9]; first compound 0.001 µM): 0.325 | relative viability ([9]; first compound 0.003162 µM): 0.348 | relative viability ([9]; first compound 0.01 µM): 0.41 | relative viability ([9]; first compound 0.03162 µM): 0.445 | relative viability ([9]; first compound 0.1 µM): 0.37 | relative viability ([10]; first compound 0.001 µM): 0.735 | relative viability ([10]; first compound 0.003162 µM): 0.734 | relative viability ([10]; first compound 0.01 µM): 0.743 | relative viability ([10]; first compound 0.03162 µM): 0.732 | relative viability ([10]; first compound 0.1 µM): 0.751 | relative viability ([11]; first compound 0.001 µM): 0.526 | relative viability ([11]; first compound 0.003162 µM): 0.605 | relative viability ([11]; first compound 0.01 µM): 0.629 | relative viability ([11]; first compound 0.03162 µM): 0.576 | relative viability ([11]; first compound 0.1 µM): 0.455
